# In patent publication US20250230511A1, “METHODS AND REAGENTS FOR […] VECTOR NUCLEIC ACID PRODUCTS” (Sana Biotechnology, Inc., priority 2021, published 2025):
# Assays:
# [1] = tested on: VSV-G pseudotyped lentiviral vector (VG); assay type: cell-based
# [2] = tested on: VSV-G pseudotyped lentiviral vector (VG); assay type: cell-based; remark: listed apart in the source
structure (smiles),measurement,setting,value
Cc1ccnc2c1NC(=O)c1cccnc1N2C1CC1 [Nevirapine],determination of VCN based on assay of the DelU3 amplicon,[1],completely ablated
same,determination of VCN based on assay of the WPRE amplicon,[2],not substantially impacted
